This note sets out measurements from patent US10106524B2, “2,3,4,5-tetrahydropyridin-6-amine and 3,4-dihydro-2H-pyrrol-5-amine compound inhibitors of beta-secretase” (Janssen Pharmaceutica NV, priority 2015, dated 2018).

Test [1] concerns the target T1, recombinant BACE1 protein (Homo sapiens, UniProt P56817).
T1 construct: recombinant BACE1 protein in a final concentration of 1 μg/ml
Briefly: BACE1 biochemical FRET based assay - Method 2. The settings on record: BACE1 0.04 μg/ml, 450 minutes, 20 μM substrate, pH 5.0; for IC50: read-out: Biochemical FRET based assay- Method 2 pIC50 (converted). From the text: BACE1 Biochemical FRET Based Assay
(§1) This assay is a Fluorescence Resonance Energy Transfer Assay (FRET) based assay. The substrate for this assay is an APP derived 13 amino acids peptide that contains the ‘Swedish’ Lys-Met/Asn-Leu mutation of the amyloid precursor protein (APP) beta-secretase cleavage site. This substrate also contains two fluorophores: (7-methoxycoumarin-4-yl) acetic acid (Mca) is a fluorescent donor with excitation wavelength at 320 nm and emission at 405 nm and 2,4-Dinitrophenyl (Dnp) is a proprietary quencher acceptor. […] Upon cleavage by BACE1, the fluorophore Mca is separated from the quenching group Dnp, restoring the full fluorescence yield of the donor. The increase in fluorescence is linearly related to the rate of proteolysis.
Briefly in a 384-well format recombinant BACE1 protein in a final concentration of 0.04 μg/ml is incubated for 450 minutes at room temperature with 20 μM substrate in incubation buffer (50 mM Citrate buffer pH 5.0, 0.05% PEG) in the presence of compound or DMSO. Next the amount of proteolysis is directly measured by fluorescence measurement (excitation at 320 nm and emission at 405 nm) at different incubation times (0, 30, 60, 90, 120 and 450 min). For every experiment a time curve (every 30 min between 0 min and 120 min) is used to determine the time where we find the lowest basal signal of the high control. The signal at this time (Tx) is used to subtract from the signal at 450 min. Results are expressed in RFU, as difference between T450 and Tx.
(§2) A best-fit curve is fitted by a minimum sum of squares method to the plot of % Controlmin versus compound concentration. From this an IC50 value (inhibitory concentration causing 50% inhibition of activity) can be obtained.

The subject of test [2] is Abeta 1-42 produced and secreted by SKNBE2 cells expressing hAPP695. As to the kind of experiment: Cellular αLisa assay in SKNBE2 cells - Abeta 42. Particulars: incubated for 18 hours; for IC50: Homo sapiens, read-out: Cellular αLisa assay in SKNBE2 cells Abeta 42 pIC50 (converted). Format: cell-based, human. How it is done: Cellular αLisa Assay in SKNBE2 Cells
In two αLisa assays the levels of Abeta total and Abeta 1-42 produced and secreted into the medium of human neuroblastoma SKNBE2 cells are quantified. The assay is based on the human neuroblastoma SKNBE2 expressing the wild type Amyloid Precursor Protein (hAPP695). The compounds are diluted and added to these cells, incubated for 18 hours and then measurements of Abeta 1-42 and Abeta total are taken. Abeta total and Abeta 1-42 are measured by sandwich αLisa. αLisa is a sandwich assay using biotinylated antibody AbN/25 attached to streptavidin coated beads and antibody Ab4G8 or cAb42/26 conjugated acceptor beads for the detection of Abeta total and Abeta 1-42 respectively. In the presence of Abeta total or Abeta 1-42, the beads come into close proximity. The excitation of the donor beads provokes the release of singlet oxygen molecules that trigger a cascade of energy transfer in the acceptor beads, resulting in light emission. Light emission is measured after 1 hour incubation (excitation at […] and emission at 615 nm).
as §2

For test [3], the target named is T2, recombinant BACE2 protein (Homo sapiens, UniProt Q9Y5Z0).
T2 construct: recombinant BACE2 protein in a final concentration of 0.4 μg/nil
T2 sequence (Q9Y5Z0 63-518): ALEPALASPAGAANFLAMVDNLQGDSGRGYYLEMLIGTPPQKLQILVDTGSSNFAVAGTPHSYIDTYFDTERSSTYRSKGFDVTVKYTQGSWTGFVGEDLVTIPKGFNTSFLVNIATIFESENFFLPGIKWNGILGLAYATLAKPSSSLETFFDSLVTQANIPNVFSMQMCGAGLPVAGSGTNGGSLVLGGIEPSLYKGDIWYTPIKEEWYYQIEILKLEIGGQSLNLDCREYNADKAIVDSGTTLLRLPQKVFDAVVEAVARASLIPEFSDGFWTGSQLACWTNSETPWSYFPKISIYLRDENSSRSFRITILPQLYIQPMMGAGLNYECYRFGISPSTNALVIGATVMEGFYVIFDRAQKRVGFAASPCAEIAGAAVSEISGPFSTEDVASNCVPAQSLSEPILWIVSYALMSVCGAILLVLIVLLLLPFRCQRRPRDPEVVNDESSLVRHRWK
Briefly: BACE2 biochemical FRET based assay. Particulars: BACE2 0.4 μg/nil, 450 minutes, 10 μM substrate, pH 5.0; for IC50: read-out: Biochemical FRET based assay pIC50 (BACE2) (converted).
Excerpt: BACE2 Biochemical FRET Based Assay
as §1, with “assay” for “assay is an APP derived 13 amino acids peptide that”, “the beta-secretase,” for “BACE1,”
Briefly in a 384-well format recombinant BACE2 protein in a final concentration of […] is incubated for 450 minutes at room temperature with 10 μM substrate in incubation buffer (50 mM Citrate buffer pH 5.0, 0.05% PEG, no DMSO) in the absence or presence of compound. Next the amount of proteolysis is directly measured by fluorescence measurement at T=0 and T=450 (excitation at 320 nm and emission at 405 nm). Results are expressed in RFU (Relative Fluorescence Units), as difference between T450 and T0.
as §2

T1 sequence (P56817 46-501): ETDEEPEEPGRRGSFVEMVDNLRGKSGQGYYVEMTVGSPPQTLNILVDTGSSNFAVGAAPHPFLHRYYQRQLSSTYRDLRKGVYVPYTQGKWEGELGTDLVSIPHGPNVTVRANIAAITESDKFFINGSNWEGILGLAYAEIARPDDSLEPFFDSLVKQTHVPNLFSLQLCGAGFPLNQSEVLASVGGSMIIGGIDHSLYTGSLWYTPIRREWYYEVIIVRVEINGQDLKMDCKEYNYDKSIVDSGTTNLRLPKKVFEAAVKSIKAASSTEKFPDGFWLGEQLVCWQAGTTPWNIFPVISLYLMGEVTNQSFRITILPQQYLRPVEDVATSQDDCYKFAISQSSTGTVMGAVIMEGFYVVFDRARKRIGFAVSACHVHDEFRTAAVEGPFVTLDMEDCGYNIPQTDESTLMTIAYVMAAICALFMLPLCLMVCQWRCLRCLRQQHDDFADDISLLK

In the case of `C[C@@]1(c2cc(NC(=O)c3ccc(C#N)cn3)ccc2F)N=C(N)C[C@@H]1C(F)(F)F` [Compound 25, N-[3-[(2R,3S)-5-amino-2-methyl-3-(trifluoromethyl)-3,4-dihydropyrrol-2-yl]-4-fluoro-phenyl]-5-cyano-pyridine-2-carboxamide], the IC50 was 182 nM in test [1], 60.3 nM in test [2] and 1070 nM in test [3].

Regarding `C[C@@]1(c2cc(Nc3ncccc3C#N)ccc2F)N=C(N)C[C@@H]1C(F)(F)F` [Compound 39, 2-[3-[(2R,3S)-5-amino-2-methyl-3-(trifluoromethyl)-3,4-dihydropyrrol-2-yl]-4-fluoro-anilino]pyridine-3-carbonitrile], the IC50 in test [1] is 2950 nM.

For the molecule `CC1(c2cc(Nc3ncccc3C#N)ccc2F)N=C(N)CC1C(F)(F)F` (racemic) [Compound 22, (±)-2-[3-[(2S*,3R*)-5-amino-2-methyl-3-(trifluoromethyl)-3,4-dihydropyrrol-2-1]-4-fluoro-anilino]pyridine-3-carbonitrile], the IC50 in test [1] was 3720 nM; in test [2], 776 nM; in test [3], at least 10000 nM.

Consider `C[C@]1(c2cc(NC(=O)c3cnc(OCC(F)(F)F)cn3)ccc2F)N=C(N)C[C@H]1C(F)(F)F` [Compound 32, N-[3-[(2S,3R)-5-amino-2-methyl-3-(trifluoromethyl)-3,4-dihydropyrrol-2-yl]-4-fluoro-phenyl]-5-(2,2,2-trifluoroethoxy)pyrazine-2-carboxamide], for which the IC50 in test [1] was over 10000 nM; in test [2], over 8910 nM; in test [3], over 20000 nM.

Turning to `C[C@@]1(c2cc(NC(=O)c3cnc(OCC(F)(F)F)cn3)ccc2F)N=C(N)C[C@@H]1C(F)(F)F` [Compound 31, N-[3-[(2R,3S)-5-amino-2-methyl-3-(trifluoromethyl)-3,4-dihydropyrrol-2-yl]-4-fluoro-phenyl]-5-(2,2,2-trifluoroethoxy)pyrazine-2-carboxamide], the IC50 in test [1] was 457 nM; in test [2], 257 nM; in test [3], over 20000 nM.

With “(±)-N-[3-[(2S*,3R*)-5-amino-2-methyl-3-(trifluoromethyl)-3,4-dihydropyrrol-2-yl]-4-fluoro-phenyl]-5-(2,2,2-trifluoroethoxy)pyrazine-2-carboxamide [Compound 24]”, the “Biochemical FRET based assay- Method 2 pIC50” value in test [1] is listed as 6.10. For the same molecule, the “Cellular αLisa assay in SKNBE2 cells Abeta 42 pIC50” value in test [2] was determined as 6.38. For the same molecule, in test [3], the “Biochemical FRET based assay pIC50 (BACE2)” value is given as under 5.

As to `COc1cnc(C(=O)Nc2ccc(F)c([C@@]3(C)N=C(N)C[C@H]3C(F)(F)F)c2)cn1` [Compound 34, N-[3-[(2S,3R)-5-amino-2-methyl-3-(trifluoromethyl)-3,4-dihydropyrrol-2-yl]-4-fluoro-phenyl]-5-methoxy-pyrazine-2-carboxamide], the IC50 in test [1] is over 10000 nM.

In the case of `C[C@]1(c2cc(Nc3ncccc3C#N)ccc2F)N=C(N)C[C@H]1C(F)(F)F` [Compound 38, 2-[3-[(2S,3R)-5-amino-2-methyl-3-(trifluoromethyl)-3,4-dihydropyrrol-2-yl]-4-fluoro-anilino]pyridine-3-carbonitrile], the IC50 in test [1] is over 10000 nM.

Regarding `COCCOc1cnc(C(=O)Nc2ccc(F)c([C@@]3(C)N=C(N)C[C@H]3C(F)(F)F)c2)cn1` [Compound 30, N-[3-[(2S,3R)-5-amino-2-methyl-3-(trifluoromethyl)-3,4-dihydropyrrol-2-yl]-4-fluoro-phenyl]-5-(2-methoxyethoxy)pyrazine-2-carboxamide], the IC50 in test [1] is over 10000 nM; in test [2] it was over 8910 nM; in test [3], over 20000 nM.

In the case of `Cc1nc(C(=O)Nc2ccc(F)c([C@]3(C)N=C(N)C[C@@H]3C(F)(F)F)c2)co1` [Compound 35, N-[3-[(2R,3S)-5-amino-2-methyl-3-(trifluoromethyl)-3,4-dihydropyrrol-2-yl]-4-fluoro-phenyl]-2-methyl-oxazole-4-carboxamide], the IC50 in test [1] was over 10000 nM.

As for `COc1cccnc1Nc1ccc(F)c([C@@]2(C)N=C(N)C[C@H]2C(F)(F)F)c1` [Compound 37, N-[3-[(2S,3R)-5-amino-2-methyl-3-(trifluoromethyl)-3,4-dihydropyrrol-2-yl]-4-fluoro-phenyl]-3-methoxy-pyridin-2-amine], the IC50 in test [1] was over 10000 nM.

Turning to `COc1cnc(C(=O)Nc2ccc(F)c([C@]3(C)N=C(N)C[C@@H]3C(F)(F)F)c2)cn1` [Compound 27, N-[3-[(2R,3S)-5-amino-2-methyl-3-(trifluoromethyl)-3,4-dihydropyrrol-2-yl]-4-fluoro-phenyl]-5-methoxy-pyrazine-2-carboxamide], the IC50 in test [1] is 389 nM; in test [2], 100 nM; in test [3] it was 5890 nM.

For the molecule `C[C@@]1(c2cc(NC(=O)c3ccc(Br)cn3)ccc2F)N=C(N)C[C@@H]1C(F)(F)F` [Compound 33, N-[3-[(2R,3S)-5-amino-2-methyl-3-(trifluoromethyl)-3,4-dihydropyrrol-2-yl]-4-fluoro-phenyl]-5-bromo-pyridine-2-carboxamide], the IC50 is 229 nM in test [1], 36.3 nM in test [2] and 513 nM in test [3].

In the case of `COCCOc1cnc(C(=O)Nc2ccc(F)c([C@]3(C)N=C(N)C[C@@H]3C(F)(F)F)c2)cn1` [Compound 29, N-[3-[(2R,3S)-5-amino-2-methyl-3-(trifluoromethyl)-3,4-dihydropyrrol-2-yl]-4-fluoro-phenyl]-5-(2-methoxyethoxy)pyrazine-2-carboxamide], the IC50 in test [1] is 447 nM; in test [2], 151 nM; in test [3], over 20000 nM.

On to `Cc1nc(C(=O)Nc2ccc(F)c([C@@]3(C)N=C(N)C[C@H]3C(F)(F)F)c2)co1` [Compound 36, N-[3-[(2S,3R)-5-amino-2-methyl-3-(trifluoromethyl)-3,4-dihydropyrrol-2-yl]-4-fluoro-phenyl]-2-methyl-oxazole-4-carboxamide], for which the IC50 in test [1] is 1020 nM.

As for `C[C@]1(c2cc(NC(=O)c3ccc(Br)cn3)ccc2F)N=C(N)C[C@H]1C(F)(F)F` [Compound 41, N-[3-[(2S,3R)-5-amino-2-methyl-3-(trifluoromethyl)-3,4-dihydropyrrol-2-yl]-4-fluoro-phenyl]-5-bromo-pyridine-2-carboxamide], the IC50 in test [1] was over 10000 nM.
